Source: patent publication US20200017496A1 (priority 2017, published 2020)

What was measured:
Experiment in all cases: MIC of compounds alone and combined with antibacterials, broth microdilution (CLSI)
Assay type in all cases: cell-based
[1] = tested on: Citrobacter freundii (CFR) isolates
Summary of the method: (§1)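 Log-phase isolates at final 5·10^5 CFU/mL in cation-adjusted Mueller-Hinton broth, incubated 16-20 h at 35° C in ambient air. MIC read visually as lowest concentration preventing growth, for compound alone and for antibacterial at each compound concentration.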

[2] = tested on: Enterobacter cloacae (ECL) isolates
Summary of the method: as §1

[3] = tested on: Klebsiella oxytoca (KOX) isolates; conditions: alone
Summary of the method: as §1

[4] = tested on: Klebsiella pneumoniae (KPN) isolates; conditions: alone
Summary of the method: as §1

[5] = tested on: Salmonella typhimurium (STY) isolates; conditions: STY S3371; alone
Summary of the method: as §1

Compound `NC(=O)[C@@H]1CC[C@@H]2CN1C(=O)N2OC(F)(F)C(=O)[O-].[Na+]` [EA1] has an MIC ([1]; CFR UFR10, alone) greater than 32 µg/mL, an MIC ([1]; CFR UFR11, alone) of 16 µg/mL and an MIC ([1]; CFR UFR83, alone) greater than 32 µg/mL. The MIC ([1]; CFR UFR146, alone) was 64 µg/mL, the MIC ([1]; CFR UFR248, alone) was greater than 32 µg/mL and the MIC ([1]; CFR UFR249, alone) was greater than 32 µg/mL. For the same compound, the MIC ([1]; CFR UFR250, alone) was greater than 32 µg/mL, the MIC ([1]; strain CFR UFR253, compound alone) was 32 µg/mL and the MIC ([1]; strain CFR UFR254, compound alone) was 32 µg/mL. It also gave an MIC ([2]; ECL 2185D, alone) of 16 µg/mL, an MIC ([2]; ECL 190310, alone) of 32 µg/mL and an MIC ([2]; ECL 190408, alone) greater than 128 µg/mL. The MIC ([2]; ECL 200138, alone) was greater than 32 µg/mL, the MIC ([2]; ECL 200322, alone) was 16 µg/mL and the MIC ([2]; ECL 260033, alone) was 16 µg/mL. For the same compound, the MIC ([2]; ECL 260253, alone) was greater than 32 µg/mL, the MIC ([2]; ECL 260323, alone) was greater than 32 µg/mL and the MIC ([2]; ECL 260508, alone) was greater than 32 µg/mL. For the same compound, the MIC ([2]; ECL NEM146383, alone) was 32 µg/mL, the MIC ([2]; ECL P99, alone) was 16 µg/mL and the MIC ([2]; ECL UFR12, alone) was 32 µg/mL. For the same compound, the MIC ([2]; ECL UFR13, alone) was 32 µg/mL, the MIC ([2]; ECL UFR14, alone) was greater than 32 µg/mL and the MIC ([2]; ECL UFR60, alone) was 32 µg/mL. It also gave an MIC ([2]; ECL UFR70, alone) of 32 µg/mL, an MIC ([2]; ECL UFR84, alone) greater than 32 µg/mL and an MIC ([2]; ECL UFR85, alone) greater than 32 µg/mL. It also gave an MIC ([2]; ECL UFR194, alone) greater than 32 µg/mL, an MIC ([2]; ECL UFR200, alone) greater than 32 µg/mL and an MIC ([2]; strain ECL UFR195, compound alone) greater than 32 µg/mL. It also gave an MIC ([2]; strain ECL UFR196, compound alone) greater than 32 µg/mL, an MIC ([2]; strain ECL UFR197, compound alone) of 16 µg/mL and an MIC ([2]; strain ECL UFR198, compound alone) greater than 32 µg/mL. The MIC ([3]; KOX UFR21) was greater than 32 µg/mL, the MIC ([3]; KOX UFR173) was greater than 32 µg/mL and the MIC ([3]; KOX UFR223) was greater than 32 µg/mL. It also gave an MIC ([3]; KOX UFR224) greater than 32 µg/mL, an MIC ([4]; KPN 6299) greater than 32 µg/mL and an MIC ([4]; KPN 110376) greater than 32 µg/mL. The MIC ([4]; KPN 131119) was greater than 32 µg/mL, the MIC ([4]; KPN 140513) was greater than 32 µg/mL and the MIC ([4]; KPN 160143) was greater than 32 µg/mL. It also gave an MIC ([4]; KPN 190128) greater than 32 µg/mL, an MIC ([4]; KPN 190270) greater than 32 µg/mL and an MIC ([4]; KPN 190425) greater than 32 µg/mL. For the same compound, the MIC ([4]; KPN 190551) was greater than 32 µg/mL, the MIC ([4]; KPN 200047) was greater than 32 µg/mL and the MIC ([4]; KPN 200327) was greater than 32 µg/mL. It also gave an MIC ([4]; KPN 260251) greater than 32 µg/mL, an MIC ([4]; KPN 260252) greater than 32 µg/mL and an MIC ([4]; KPN 260376) greater than 32 µg/mL. It also gave an MIC ([4]; KPN 270077) greater than 32 µg/mL, an MIC ([4]; KPN 700603) greater than 32 µg/mL and an MIC ([4]; KPN ARA) greater than 32 µg/mL. For the same compound, the MIC ([4]; KPN BAA-1898) was greater than 32 µg/mL, the MIC ([4]; KPN LIB) was greater than 32 µg/mL and the MIC ([4]; KPN UFR22_O) was greater than 32 µg/mL. It also gave an MIC ([4]; KPN UFR23) greater than 32 µg/mL, an MIC ([4]; KPN UFR24) greater than 32 µg/mL and an MIC ([4]; KPN UFR25) greater than 32 µg/mL. It also gave an MIC ([4]; KPN UFR27) greater than 32 µg/mL, an MIC ([4]; KPN UFR28) greater than 32 µg/mL and an MIC ([4]; KPN UFR65) greater than 32 µg/mL. For the same compound, the MIC ([4]; KPN UFR66) was greater than 32 µg/mL, the MIC ([4]; KPN UFR67) was greater than 32 µg/mL and the MIC ([4]; KPN UFR68) was greater than 32 µg/mL. It also gave an MIC ([4]; KPN UFR76) greater than 32 µg/mL, an MIC ([4]; KPN UFR77) greater than 32 µg/mL and an MIC ([4]; KPN UFR78) greater than 32 µg/mL. The MIC ([4]; KPN UFR79) was greater than 32 µg/mL, the MIC ([4]; KPN UFR80) was greater than 32 µg/mL and the MIC ([4]; KPN UFR81) was greater than 32 µg/mL. The MIC ([4]; KPN UFR215) was greater than 32 µg/mL, the MIC ([4]; KPN UFR216) was greater than 32 µg/mL and the MIC ([4]; KPN UFR217) was greater than 32 µg/mL. It also gave an MIC ([4]; KPN UFR219) greater than 32 µg/mL, an MIC ([4]; KPN UFR220) greater than 32 µg/mL and an MIC ([4]; KPN UFR221) greater than 32 µg/mL. For the same compound, the MIC ([4]; KPN UFR222) was greater than 32 µg/mL, the MIC ([4]; KPN UFR227O) was greater than 32 µg/mL and the MIC [5] was greater than 32 µg/mL.
